Structures can show the parent of a compound that is named as a salt.
B1: Gosuranemab: humanized monoclonal antibody that targets N-terminal tau (antibody, chains of the INN, looked up, V domains shown)
VH: EVHLVESGGALVKPGGSLRLSCAASGFSFSKYGMSWVRQAPGKGLEWVATISSSGSRTYYPDSVKGRFTISRDNAKNTLYLQMNSLRAEDTAMYYCSISWDGAMDYWGQGTTVTVSS
VL: DVVMTQSPLSLPVTLGQPASISCKSSQSIVHSNGNTYLEWYLQKPGQSPQLLVYKVSNRFSGVPDRFSGSGSGTDFTLKISRVEAEDVGTYYCFQGSLVPWAFGGGTKVEIK
B2: ABBV-8E12: humanized anti-tau monoclonal antibody (antibody, chains of the INN, looked up, V domains shown)
VH: EVKVVESGGGLVQPGGSMKLSCVVSGFTFSNYWVNWVRQAPGKGLEWVAQIRLKSDNYATHYEESVKGRFTISRDDSKSSVYLQMNNLRAEDSGIYYCTNWEDYWGQGTTVTVSS
VL: DIVLTQSPDSLAVSLGERATISCRASQSVSTSRYSYIHWYQQKPGQPPKLLIKYASNLESGVPSRFSGSGSGTDFTLNIHPLEPEDFATYYCHHSWEIPLTFGQGTKLEIK

How the values were obtained:
[1] = in vivo, 1-hydroxy metabolite; cited from earlier work
[2] = tested on: PSP patients; details: cited from earlier work; for effect or benefit in clinical trial in PSP: PSP patients (riluzole: PSP and MSA)
[3] = tested on: subjects with probable or possible PSP; assay: treatment of probable or possible PSP subjects with fasudil, assessments at six months and one year versus baseline and historical controls; assay type: in vivo, human

| Molecule | effect or benefit in clinical trial in PSP [2] | other results |
| --- | --- | --- |
| O=S(=O)(c1cccc2c(O)nccc12)N1CCCNCC1 [M3] |  | half-life [1]: about 8 hours |
| O=c1sn(-c2cccc3ccccc23)c(=O)n1Cc1ccccc1 [tideglusib] | failed to show benefit |  |
| Nc1nc2ccc(OC(F)(F)F)cc2s1 [riluzole] | failed to demonstrate effects |  |
| O=C(Oc1ccccc1C(=O)O)c1ccccc1O [Salsalate] | failed |  |
| O=S(=O)(c1cccc2cnccc12)N1CCCNCC1 [fasudil, Hexahydro-1-(5-isoquinolinesulfonyl)-1H-1,4-diazepine monohydrochloride hemihydrate] |  | oculomotor and sleep parameters ([3]; fasudil 180 mg/day): improve; PSP-RS increase over a year ([3]; fasudil 180 mg/day (60 mg tid), average is closer to 10): ≤ 5 point |
| [Li] [lithium] |  | tolerability in open-label trial in PSP ([2]; open-label trial in PSP): terminated due to poor tolerability |
| CC[C@H](C)[C@H](NC(=O)[C@H](CO)NC(=O)[C@@H](NC(=O)[C@@H]1CCCN1C(=O)[C@H](C)NC(=O)[C@@H](N)CC(N)=O)C(C)C)C(=O)N1CCC[C@H]1C(=O)N[C@@H](CCC(N)=O)C(=O)O [Davunetide] | not shown not to be effective |  |
| C=CC1O[C@H]2C[C@H]3OC[C@@]3(OC(C)=O)[C@H]3[C@H](OC(=O)c4ccccc4)[C@]4(O)C[C@H](OC(=O)[C@H](O)[C@H](CC(C)C)NC(=O)OC(C)(C)C)C(C)=C([C@H](OC(C)=O)[C@H](O1)[C@]23C)C4(C)C (stereo partly drawn) [TPI 287] | failed to show any effect |  |
| COC1=C(OC)C(=O)C(C/C=C(\C)CC/C=C(\C)CC/C=C(\C)CC/C=C(\C)CC/C=C(\C)CC/C=C(\C)CC/C=C(\C)CC/C=C(\C)CC/C=C(\C)CCC=C(C)C)=C(C)C1=O [coenzyme Q10] | failed to provide benefit |  |
| B1 | no effect |  |
| B2 | failed to demonstrate an effect |  |

Source: patent US20240299408A1, “METHODS OF TREATING 4-REPEAT TAUOPATHIES” (Woolsey Pharmaceuticals, Inc., priority 2020, published 2024)
